pIC50: −log10 of the molar value.
Experiments:
[1] = molecular target: 72 kDa type IV collagenase (Homo sapiens, UniProt P08253)
Description: Inhibition of human active MMP2 using (7-methoxycoumarin-4-yl) acetyl pro-Leu-Gly-Leu-[3-(2,4-dinitrophenyl)-L-2,3-diamino-propionyl]-Ala-Arg-NH2 fluorogenic substrate assessed as fluorescent product release

[2] = molecular target: Matrix metalloproteinase-9 (Homo sapiens, UniProt P14780); test: Inhibition of human active MMP9 using (7-methoxycoumarin-4-yl) acetyl pro-Leu-Gly-Leu-[3-(2,4-dinitrophenyl)-L-2,3-diamino-propionyl]-Ala-Arg-NH2 fluorogenic substrate assessed as fluorescent product release
Sequence of Matrix metalloproteinase-9 (P14780 whole entry): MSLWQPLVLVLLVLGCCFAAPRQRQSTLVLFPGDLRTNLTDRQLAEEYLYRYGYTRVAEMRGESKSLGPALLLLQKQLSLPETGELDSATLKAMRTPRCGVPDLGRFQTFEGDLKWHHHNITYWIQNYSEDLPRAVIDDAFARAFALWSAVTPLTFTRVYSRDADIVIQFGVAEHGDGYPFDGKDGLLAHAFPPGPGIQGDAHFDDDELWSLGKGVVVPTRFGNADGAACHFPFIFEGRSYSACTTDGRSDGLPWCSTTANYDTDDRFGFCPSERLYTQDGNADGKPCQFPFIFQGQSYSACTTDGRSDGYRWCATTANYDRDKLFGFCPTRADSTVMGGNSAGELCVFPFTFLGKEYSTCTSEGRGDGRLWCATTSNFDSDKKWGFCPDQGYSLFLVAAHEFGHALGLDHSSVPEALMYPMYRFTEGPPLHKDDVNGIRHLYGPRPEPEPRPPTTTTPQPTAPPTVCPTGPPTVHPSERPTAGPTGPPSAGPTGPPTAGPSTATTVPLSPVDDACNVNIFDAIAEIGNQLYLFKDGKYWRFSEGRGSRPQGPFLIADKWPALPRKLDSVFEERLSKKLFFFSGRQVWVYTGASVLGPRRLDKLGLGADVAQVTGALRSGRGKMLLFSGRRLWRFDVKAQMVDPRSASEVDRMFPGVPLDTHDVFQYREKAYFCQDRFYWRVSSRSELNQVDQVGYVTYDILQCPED

Sequence of 72 kDa type IV collagenase (P08253 whole entry): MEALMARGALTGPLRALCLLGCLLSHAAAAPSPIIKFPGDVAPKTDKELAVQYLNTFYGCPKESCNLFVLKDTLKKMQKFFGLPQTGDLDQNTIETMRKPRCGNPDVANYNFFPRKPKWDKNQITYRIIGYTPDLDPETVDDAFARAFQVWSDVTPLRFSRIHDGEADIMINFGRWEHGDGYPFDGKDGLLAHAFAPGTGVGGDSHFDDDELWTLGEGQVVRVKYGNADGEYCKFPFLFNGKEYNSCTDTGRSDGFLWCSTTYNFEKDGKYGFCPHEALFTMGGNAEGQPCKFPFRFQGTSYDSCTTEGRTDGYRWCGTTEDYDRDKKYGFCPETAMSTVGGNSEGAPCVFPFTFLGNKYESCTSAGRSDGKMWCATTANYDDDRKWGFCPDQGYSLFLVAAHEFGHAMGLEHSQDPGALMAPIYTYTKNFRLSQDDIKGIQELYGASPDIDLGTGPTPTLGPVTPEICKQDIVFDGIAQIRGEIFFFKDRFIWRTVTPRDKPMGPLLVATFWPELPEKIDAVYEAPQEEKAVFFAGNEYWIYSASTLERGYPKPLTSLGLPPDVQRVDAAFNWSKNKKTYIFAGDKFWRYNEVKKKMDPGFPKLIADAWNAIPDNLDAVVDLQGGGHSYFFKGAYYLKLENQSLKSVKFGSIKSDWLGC

| pIC50 [1] | pIC50 [2] | Structure (SMILES) |
| --- | --- | --- |
| 8.19 | 7.91 | COc1ccc(S(=O)(=O)N(Cc2cccnc2)[C@H](CCF)C(=O)NO)cc1 |
| < 4.00 | < 4.00 | C=CC[C@@H](C(=O)O)N(Cc1cccnc1)S(=O)(=O)c1ccc(OC)cc1 |
| 4.46 | < 4.00 | COc1ccc(S(=O)(=O)N(Cc2cccnc2)[C@@H](CCF)C(=O)O)cc1 |
| < 4.00 | < 4.00 | COc1ccc(S(=O)(=O)N(Cc2cccnc2)[C@H](CCF)C(=O)O)cc1 |
| 8.41 | 9.27 | C=CC[C@H](C(=O)NO)N(Cc1cccnc1)S(=O)(=O)c1ccc(OC)cc1 |
| 5.85 | 6.15 | CC[C@@H](C(=O)NO)N(Cc1cccnc1)S(=O)(=O)c1ccc(OC)cc1 |
| 5.68 | 5.77 | C=CC[C@H](C(=O)O)N(Cc1cccnc1)S(=O)(=O)c1ccc(OC)cc1 |
| 8.20 | 8.19 | C=CC[C@@H](C(=O)NO)N(Cc1cccnc1)S(=O)(=O)c1ccc(OC)cc1 |
| < 4.00 | < 4.00 | CC[C@@H](C(=O)O)N(Cc1cccnc1)S(=O)(=O)c1ccc(OC)cc1 |
| 8.03 | 8.08 | C=C(F)C[C@H](C(=O)NO)N(Cc1cccnc1)S(=O)(=O)c1ccc(OC)cc1 |
| 4.99 | 5.06 | CC[C@H](C(=O)O)N(Cc1cccnc1)S(=O)(=O)c1ccc(OC)cc1 |
| 8.14 | 8.31 | C=C(F)C[C@@H](C(=O)NO)N(Cc1cccnc1)S(=O)(=O)c1ccc(OC)cc1 |
| 4.45 | < 4.00 | C=C(F)C[C@H](C(=O)O)N(Cc1cccnc1)S(=O)(=O)c1ccc(OC)cc1 |
| < 4.00 | < 4.00 | C=C(F)C[C@@H](C(=O)O)N(Cc1cccnc1)S(=O)(=O)c1ccc(OC)cc1 |
| 8.70 | 8.34 | CC[C@H](C(=O)NO)N(Cc1cccnc1)S(=O)(=O)c1ccc(OC)cc1 |

Source: ChEMBL document CHEMBL3585266, “New matrix metalloproteinase inhibitors based on γ-fluorinated α-aminocarboxylic and α-aminohydroxamic acids” (Bioorg Med Chem, 2015)
